Reference: patent publication US6440903B1, “Substituted 2,4-diamino-1,3,5-triazines as herbicides” (Bayer Aktiengesellschaft, priority 1996, dated 2002)

Assays:
Format in all cases: in vivo
[1] = test system: weeds; experiment: Post-emergence test (summary in text); details: result in words
Experimental: Solvent: 5 parts by weight of acetone
Emulsifier: 1 part by weight of alkylaryl polyglycol ether
To produce a suitable preparation of active compound, 1 part by weight of active compound is mixed with the stated amount of solvent, the stated amount of emulsifier is added and the concentrate is diluted with water to the desired concentration.
Test plants which have a height of 5-15 cm are sprayed with the preparation of active compound such that the particular amounts of active compounds desired are applied per unit area. The concentration of the spray liquor is chosen so that the particular amounts of active compound desired are applied in 1000 l of water/ha.
After three weeks, the degree of damage to the plants is scored visually in % damage in comparison to the untreated control.
0%=no effect (like untreated control)

[2] = test system: Amaranthus; experiment: Post-emergence test; details: Amaranthus, 504 h, greenhouse, scored after three weeks, read-out: % damage, Amaranthus; for pest or weed control at 500 g/ha: 500 g of ai./ha; for pest or weed control at 250 g/ha: 250 g of ai./ha
Experimental: (§1) Post-emergence Test Solvent: 5 parts by weight of acetone Emulsifier: 1 part by weight of alkylaryl polyglycol ether To produce a suitable preparation of active compound, 1 part by weight of active compound is mixed with the stated amount of solvent, the stated amount of emulsifier is added and the concentrate is diluted with water to the desired concentration. Test plants which have a height of 5-15 cm are sprayed with the preparation of active compound such that the particular amounts of active compounds desired are applied per unit area. The concentration of the spray liquor is chosen so that the particular amounts of active compound desired are applied in 1000 l of water/ha. After three weeks, the degree of damage to the plants is scored visually in % damage in comparison to the untreated control. The Figures Denote: 0%=no effect (like untreated control) 100%=total destruction

[3] = test system: Chenopodium; experiment: Post-emergence test; details: Chenopodium, 504 h, greenhouse, scored after three weeks, read-out: % damage, Chenopodium; for pest or weed control at 500 g/ha: 500 g of ai./ha; for pest or weed control at 250 g/ha: 250 g of ai./ha
Experimental: as §1

[4] = test system: Polygonum; experiment: Post-emergence test; details: Polygonum, 504 h, greenhouse, scored after three weeks, read-out: % damage, Polygonum; for pest or weed control at 500 g/ha: 500 g of ai./ha; for pest or weed control at 250 g/ha: 250 g of ai./ha
Experimental: as §1

[5] = test system: Setaria; experiment: Post-emergence test; details: Setaria, 504 h, greenhouse, scored after three weeks, read-out: % damage, Setaria; for pest or weed control at 500 g/ha: 500 g of ai./ha; for pest or weed control at 250 g/ha: 250 g of ai./ha
Experimental: as §1

[6] = test system: Viola; experiment: Post-emergence test; details: 504 h, greenhouse, scored after three weeks, read-out: % damage, Viola; for pest or weed control at 500 g/ha: 500 g of ai./ha; for pest or weed control at 250 g/ha: 250 g of ai./ha
Experimental: as §1

[7] = test system: Wheat; experiment: Post-emergence test; details: Triticum aestivum, 504 h, greenhouse, scored after three weeks, read-out: % damage, Wheat; for plant injury at 500 g/ha: 500 g of ai./ha; for plant injury at 250 g/ha: 250 g of ai./ha
Experimental: as §1

Compound: COc1ccc(C(C)Nc2nc(N)nc(C(F)(F)F)n2)cc1 (centres unmarked) [Example 79]
- activity against weeds [1]: strong activity

Compound: CC(Cl)c1nc(N)nc(NC(C)c2ccc(Cl)cc2)n1 (centres unmarked) [Example 171]
- activity against weeds [1]: strong activity

Compound: CC(Nc1nc(N)nc(C(Cl)Cl)n1)c1ccc(Cl)cc1 (centres unmarked) [drawing 129]
- pest or weed control at 500 g/ha [2]: 100%
- pest or weed control at 500 g/ha [3]: 100%
- pest or weed control at 500 g/ha [4]: 100%
- pest or weed control at 500 g/ha [5]: 100%
- pest or weed control at 500 g/ha [6]: 100%
- plant injury at 500 g/ha [7]: 10%

Compound: CC(Nc1nc(N)nc(Cl)n1)c1ccc(Cl)cc1 (centres unmarked) [Example 5]
- activity against weeds [1]: strong activity

Compound: CC(Nc1nc(N)nc(C(F)(F)C(F)(F)F)n1)c1ccc(Cl)cc1 (centres unmarked)
- pest or weed control at 250 g/ha [2]: 100%
- pest or weed control at 250 g/ha [3]: 100%
- pest or weed control at 250 g/ha [4]: 100%
- pest or weed control at 250 g/ha [5]: 100%
- pest or weed control at 250 g/ha [6]: 100%
- plant injury at 250 g/ha [7]: 10%

Compound: CCc1nc(N)nc(NC(C)c2ccc(Cl)cc2)n1 (centres unmarked) [Example 91]
- activity against weeds [1]: strong activity

Compound: CC(=O)Nc1nc(NC(C)c2ccc(Cl)cc2)nc(C(F)(F)F)n1 (centres unmarked)
- pest or weed control at 500 g/ha [2]: 100%
- pest or weed control at 500 g/ha [3]: 100%
- pest or weed control at 500 g/ha [4]: 100%
- pest or weed control at 500 g/ha [5]: 95%
- pest or weed control at 500 g/ha [6]: 100%
- plant injury at 500 g/ha [7]: 10%

Compound: CC(Nc1nc(N)nc(C(Cl)Cl)n1)c1ccc(Cl)cc1 (centres unmarked) [drawing 119]
- pest or weed control at 250 g/ha [2]: 100%
- pest or weed control at 250 g/ha [3]: 100%
- pest or weed control at 250 g/ha [4]: 100%
- pest or weed control at 250 g/ha [5]: 90%
- pest or weed control at 250 g/ha [6]: 100%
- plant injury at 250 g/ha [7]: 10%

Compound: COc1ccc(C(C)Nc2nc(N)nc(C(C)F)n2)cc1 (centres unmarked) [Example 190]
- activity against weeds [1]: strong activity

Compound: CCc1nc(N)nc(NC(C)c2ccc(Cl)cc2)n1 (centres unmarked) [Example 166]
- activity against weeds [1]: strong activity

Compound: CC(Nc1nc(N)nc(C(C)(Cl)Cl)n1)c1ccc(Cl)cc1 (centres unmarked) [drawing 121]
- pest or weed control at 250 g/ha [2]: 100%
- pest or weed control at 250 g/ha [3]: 100%
- pest or weed control at 250 g/ha [4]: 100%
- pest or weed control at 250 g/ha [5]: 80%
- pest or weed control at 250 g/ha [6]: 100%
- plant injury at 250 g/ha [7]: 10%

Compound: CC(Nc1nc(N)nc(C(Cl)Cl)n1)c1ccc(Cl)cc1 (centres unmarked) [Example 94]
- activity against weeds [1]: strong activity

Compound: CC(Nc1nc(N)nc(C(C)(Cl)Cl)n1)c1ccc(Cl)cc1 (centres unmarked) [drawing 126]
- pest or weed control at 500 g/ha [2]: 100%
- pest or weed control at 500 g/ha [3]: 100%
- pest or weed control at 500 g/ha [4]: 100%
- pest or weed control at 500 g/ha [5]: 90%
- pest or weed control at 500 g/ha [6]: 100%
- plant injury at 500 g/ha [7]: 10%

Compound: COCc1nc(N)nc(NC(C)c2ccc(Cl)cc2)n1 (centres unmarked) [drawing 118]
- pest or weed control at 250 g/ha [2]: 100%
- pest or weed control at 250 g/ha [3]: 100%
- pest or weed control at 250 g/ha [4]: 100%
- pest or weed control at 250 g/ha [5]: 80%
- pest or weed control at 250 g/ha [6]: 100%
- plant injury at 250 g/ha [7]: 10%

Compound: CCc1nc(N)nc(NC(C)c2ccc(Cl)cc2)n1 (centres unmarked) [drawing 123]
- pest or weed control at 500 g/ha [2]: 100%
- pest or weed control at 500 g/ha [3]: 100%
- pest or weed control at 500 g/ha [4]: 100%
- pest or weed control at 500 g/ha [5]: 95%
- pest or weed control at 500 g/ha [6]: 100%

Compound: CC(Nc1nc(N)nc(Cl)n1)c1ccc(Cl)cc1 (centres unmarked) [Example 8]
- activity against weeds [1]: strong activity

Compound: CC(Nc1nc(N)nc(Cl)n1)c1ccc(Cl)cc1 (centres unmarked) [Example 4]
- activity against weeds [1]: strong activity

Compound: COCc1nc(NC(C)=O)nc(NC(C)c2ccc(Cl)cc2)n1 (centres unmarked) [drawing 135]
- pest or weed control at 500 g/ha [2]: 100%
- pest or weed control at 500 g/ha [3]: 100%
- pest or weed control at 500 g/ha [4]: 100%
- pest or weed control at 500 g/ha [5]: 70%
- pest or weed control at 500 g/ha [6]: 100%
- plant injury at 500 g/ha [7]: 10%
